Measured values: the supplement of paper PMC10307832

What was measured:
Experiment in all cases: relative viability (nuclei count vs DMSO), 5 days (fraction); higher = more cells survive
[1] = compound: CC1=CC=C(C=C1)C(=O)CN2C3=C(CCCC3)SC2=N [Pifithrin_alpha] + CCNC(=O)c1noc(-c2cc(C(C)C)c(O)cc2O)c1-c1ccc(CN2CCOCC2)cc1 [Luminespib] (partner 0.01 µM)
Procedure, shortened: (§1)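 Each reported value is a median over duplicate plates. It expresses relative viability: treated-well nuclei count divided by vehicle-well nuclei count. Lung cancer cell lines in 1536-well plates were dosed by pin tool a day after seeding, alone with one drug or with a fixed anchor-drug dose plus five library-drug doses (not always all listed) in √10 steps, and nuclei were counted after 5 days.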

[2] = compound: CC1=CC=C(C=C1)C(=O)CN2C3=C(CCCC3)SC2=N [Pifithrin_alpha] + CC(C)C[C@H](NC(=O)[C@H](Cc1ccccc1)NC(=O)c1cnccn1)B(O)O [Bortezomib] (partner 0.002 µM)
Procedure, shortened: as §1

[3] = compound: Nc1nc(Nc2ccc3c(c2)CC[C@@H](N2CCCC2)CC3)nn1-c1cc2c(nn1)-c1ccccc1CCC2 [Bemcentinib] + CC(=O)Nc1cccc(-n2c(=O)n(C3CC3)c(=O)c3c(Nc4ccc(I)cc4F)n(C)c(=O)c(C)c32)c1 [Trametinib] (partner 0.02 µM)
Procedure, shortened: as §1

[4] = compound: CC1=CC=C(C=C1)C(=O)CN2C3=C(CCCC3)SC2=N [Pifithrin_alpha] + CS(=O)(=O)N1CCN(Cc2cc3nc(-c4cccc5[nH]ncc45)nc(N4CCOCC4)c3s2)CC1 [Pictilisib] (partner 1 µM)
Procedure, shortened: as §1

HCC-827
relative viability ([1]; first compound 1 µM): 0.747
relative viability ([1]; first compound 3.162 µM): 0.741
relative viability ([1]; first compound 10 µM): 0.803
relative viability ([1]; first compound 31.62 µM): 0.439
relative viability ([1]; first compound 100 µM): 0.863
relative viability ([2]; first compound 1 µM): 0.961
relative viability ([2]; first compound 3.162 µM): 1.14
relative viability ([2]; first compound 10 µM): 0.987
relative viability ([2]; first compound 31.62 µM): 0.903
relative viability ([2]; first compound 100 µM): 0.981
relative viability ([3]; first compound 0.04 µM): 0.545
relative viability ([3]; first compound 0.1265 µM): 0.548
relative viability ([3]; first compound 0.4 µM): 0.534
relative viability ([3]; first compound 1.265 µM): 0.599
relative viability ([3]; first compound 4 µM): 0.586
relative viability ([4]; first compound 1 µM): 1.05
relative viability ([4]; first compound 3.162 µM): 0.982
relative viability ([4]; first compound 10 µM): 0.907
relative viability ([4]; first compound 31.62 µM): 0.791
relative viability ([4]; first compound 100 µM): 1.02

LXF-289
relative viability ([1]; first compound 1 µM): 0.676
relative viability ([1]; first compound 3.162 µM): 0.589
relative viability ([1]; first compound 10 µM): 0.789
relative viability ([1]; first compound 31.62 µM): 0.469
relative viability ([1]; first compound 100 µM): 0.697
relative viability ([2]; first compound 1 µM): 1.01
relative viability ([2]; first compound 3.162 µM): 1.01
relative viability ([2]; first compound 10 µM): 1.02
relative viability ([2]; first compound 31.62 µM): 0.813
relative viability ([2]; first compound 100 µM): 0.962
relative viability ([3]; first compound 0.04 µM): 0.705
relative viability ([3]; first compound 0.1265 µM): 0.681
relative viability ([3]; first compound 0.4 µM): 0.648
relative viability ([3]; first compound 1.265 µM): 0.7
relative viability ([3]; first compound 4 µM): 0.773
relative viability ([4]; first compound 1 µM): 0.818
relative viability ([4]; first compound 3.162 µM): 0.694
relative viability ([4]; first compound 10 µM): 0.726
relative viability ([4]; first compound 31.62 µM): 0.498
relative viability ([4]; first compound 100 µM): 0.687

NCI-H596
relative viability ([1]; first compound 1 µM): 0.991
relative viability ([1]; first compound 3.162 µM): 1.1
relative viability ([1]; first compound 10 µM): 1.02
relative viability ([1]; first compound 31.62 µM): 0.507
relative viability ([1]; first compound 100 µM): 0.566
relative viability ([2]; first compound 1 µM): 0.969
relative viability ([2]; first compound 3.162 µM): 1.1
relative viability ([2]; first compound 10 µM): 1.23
relative viability ([2]; first compound 31.62 µM): 1.03
relative viability ([2]; first compound 100 µM): 1.06
relative viability ([3]; first compound 0.04 µM): 0.911
relative viability ([3]; first compound 0.1265 µM): 0.965
relative viability ([3]; first compound 0.4 µM): 0.93
relative viability ([3]; first compound 1.265 µM): 0.946
relative viability ([3]; first compound 4 µM): 0.923
relative viability ([4]; first compound 1 µM): 0.354
relative viability ([4]; first compound 3.162 µM): 0.349
relative viability ([4]; first compound 10 µM): 0.379
relative viability ([4]; first compound 31.62 µM): 0.342
relative viability ([4]; first compound 100 µM): 0.392

NCI-H727
relative viability ([1]; first compound 1 µM): 0.44
relative viability ([1]; first compound 3.162 µM): 0.238
relative viability ([1]; first compound 10 µM): 0.491
relative viability ([1]; first compound 100 µM): 0.263
relative viability ([2]; first compound 1 µM): 0.786
relative viability ([2]; first compound 3.162 µM): 0.958
relative viability ([2]; first compound 10 µM): 0.696
relative viability ([2]; first compound 31.62 µM): 0.446
relative viability ([2]; first compound 100 µM): 0.793
relative viability ([3]; first compound 0.04 µM): 0.39
relative viability ([3]; first compound 0.1265 µM): 0.381
relative viability ([3]; first compound 0.4 µM): 0.385
relative viability ([3]; first compound 1.265 µM): 0.424
relative viability ([3]; first compound 4 µM): 0.414
relative viability ([4]; first compound 1 µM): 0.347
relative viability ([4]; first compound 3.162 µM): 0.466
relative viability ([4]; first compound 10 µM): 0.369
relative viability ([4]; first compound 31.62 µM): 0.316
relative viability ([4]; first compound 100 µM): 0.227

NCI-H1993
relative viability ([1]; first compound 1 µM): 0.716
relative viability ([1]; first compound 3.162 µM): 0.658
relative viability ([1]; first compound 10 µM): 0.704
relative viability ([1]; first compound 31.62 µM): 0.621
relative viability ([1]; first compound 100 µM): 0.66
relative viability ([2]; first compound 3.162 µM): 0.815
relative viability ([2]; first compound 10 µM): 0.861
relative viability ([2]; first compound 31.62 µM): 0.887
relative viability ([2]; first compound 100 µM): 0.892
relative viability ([3]; first compound 0.04 µM): 0.71
relative viability ([3]; first compound 0.1265 µM): 0.394
relative viability ([3]; first compound 0.4 µM): 0.467
relative viability ([3]; first compound 1.265 µM): 0.493
relative viability ([3]; first compound 4 µM): 0.482
relative viability ([4]; first compound 3.162 µM): 0.747
relative viability ([4]; first compound 10 µM): 0.8
relative viability ([4]; first compound 31.62 µM): 0.673
relative viability ([4]; first compound 100 µM): 0.846

NCI-H1437
relative viability ([1]; first compound 1 µM): 1.27
relative viability ([1]; first compound 3.162 µM): 1.2
relative viability ([1]; first compound 10 µM): 1.08
relative viability ([1]; first compound 31.62 µM): 0.728
relative viability ([1]; first compound 100 µM): 0.947
relative viability ([2]; first compound 1 µM): 0.567
relative viability ([2]; first compound 3.162 µM): 0.363
relative viability ([2]; first compound 10 µM): 0.401
relative viability ([2]; first compound 31.62 µM): 0.319
relative viability ([2]; first compound 100 µM): 0.281
relative viability ([3]; first compound 0.04 µM): 0.539
relative viability ([3]; first compound 0.1265 µM): 0.683
relative viability ([3]; first compound 0.4 µM): 0.486
relative viability ([3]; first compound 1.265 µM): 0.455
relative viability ([3]; first compound 4 µM): 0.644
relative viability ([4]; first compound 1 µM): 0.371
relative viability ([4]; first compound 3.162 µM): 0.406
relative viability ([4]; first compound 10 µM): 0.44
relative viability ([4]; first compound 31.62 µM): 0.249
relative viability ([4]; first compound 100 µM): 0.222

NCI-H1792
relative viability ([1]; first compound 1 µM): 0.323
relative viability ([1]; first compound 3.162 µM): 0.666
relative viability ([1]; first compound 10 µM): 0.284
relative viability ([1]; first compound 31.62 µM): 0.219
relative viability ([1]; first compound 100 µM): 0.271
relative viability ([2]; first compound 1 µM): 0.719
relative viability ([2]; first compound 3.162 µM): 0.847
relative viability ([2]; first compound 10 µM): 0.666
relative viability ([2]; first compound 31.62 µM): 0.582
relative viability ([2]; first compound 100 µM): 0.795
relative viability ([3]; first compound 0.04 µM): 0.461
relative viability ([3]; first compound 0.1265 µM): 0.422
relative viability ([3]; first compound 0.4 µM): 0.549
relative viability ([3]; first compound 1.265 µM): 0.569
relative viability ([3]; first compound 4 µM): 0.43
relative viability ([4]; first compound 1 µM): 0.156
relative viability ([4]; first compound 3.162 µM): 0.244
relative viability ([4]; first compound 10 µM): 0.205
relative viability ([4]; first compound 31.62 µM): 0.178
relative viability ([4]; first compound 100 µM): 0.217

NCI-H2023
relative viability ([1]; first compound 1 µM): 0.544
relative viability ([1]; first compound 3.162 µM): 0.637
relative viability ([1]; first compound 10 µM): 0.364
relative viability ([1]; first compound 31.62 µM): 0.277
relative viability ([1]; first compound 100 µM): 0.34
relative viability ([2]; first compound 1 µM): 0.724
relative viability ([2]; first compound 3.162 µM): 0.86
relative viability ([2]; first compound 10 µM): 0.856
relative viability ([2]; first compound 31.62 µM): 0.408
relative viability ([2]; first compound 100 µM): 0.669
relative viability ([3]; first compound 0.04 µM): 0.564
relative viability ([3]; first compound 0.1265 µM): 0.675
relative viability ([3]; first compound 0.4 µM): 0.572
relative viability ([3]; first compound 1.265 µM): 0.762
relative viability ([3]; first compound 4 µM): 0.657
relative viability ([4]; first compound 1 µM): 0.171
relative viability ([4]; first compound 3.162 µM): 0.193
relative viability ([4]; first compound 10 µM): 0.151
relative viability ([4]; first compound 31.62 µM): 0.142
relative viability ([4]; first compound 100 µM): 0.168
